The test has as its target M-phase inducer phosphatase 2 (Homo sapiens) (UniProt P30305). The experiment in a line: Cdc25B catalytic domain inhibition plus catalase – biochemical, catalase present, probe assessment, dose response (AID 668). Particulars: recombinant Cdc25B catalytic domain, phosphatase activity, with catalase.

M-phase inducer phosphatase 2 (Homo sapiens), sequence (P30305 whole entry, looked up, the tested form may be a part): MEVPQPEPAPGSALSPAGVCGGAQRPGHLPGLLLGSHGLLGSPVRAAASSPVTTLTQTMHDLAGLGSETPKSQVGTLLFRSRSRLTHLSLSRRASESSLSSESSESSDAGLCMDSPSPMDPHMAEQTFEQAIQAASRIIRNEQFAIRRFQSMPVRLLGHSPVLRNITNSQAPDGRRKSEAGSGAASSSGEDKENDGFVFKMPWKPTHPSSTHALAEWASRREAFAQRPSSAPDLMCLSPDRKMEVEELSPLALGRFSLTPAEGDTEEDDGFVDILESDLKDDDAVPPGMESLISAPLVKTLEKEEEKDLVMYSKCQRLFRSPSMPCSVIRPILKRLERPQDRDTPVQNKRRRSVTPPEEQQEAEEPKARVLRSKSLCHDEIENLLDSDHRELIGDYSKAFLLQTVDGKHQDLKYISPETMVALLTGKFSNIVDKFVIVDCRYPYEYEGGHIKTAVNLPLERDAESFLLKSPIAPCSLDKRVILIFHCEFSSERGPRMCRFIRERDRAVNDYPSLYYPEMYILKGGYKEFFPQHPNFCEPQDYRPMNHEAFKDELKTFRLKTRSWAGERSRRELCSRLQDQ

Regarding `c1ccc(CSc2nnc(-c3ccco3)c(-c3ccco3)n2)cc1`, the IC50 (in general, the concentration that inhibits the measured activity by half) was 15.7 µM.

`COc1cccc2c(C)c(C(=O)O)[nH]c12`: the half-inhibitory concentration (IC50) is 7.11 µM.
